pEC50: −log10 of the molar value.
Experiments:
[1] = tested on: phospho-ERK in HCT116 and A375 cell lines; assay: Phospho-ERK cell-based assay; settings: Homo sapiens; in either cell line (HCT116 or A375); 2 h or 24 h exposure
Protocol: Compounds are tested in a cell-based phospho-ERK ELISA using the following cell lines:
(§1) Both cell lines are maintained in DMEM/F12 (1:1) media (Gibco) supplemented with 10% FCS at 37° C. in a 5% CO2 humidified incubator.
Cells are seeded in 96-well plates at 2,000 cells/well and after 24 h they are exposed to different concentrations of compounds in 0.83% DMSO. Cells are grown for a further 2 h or 24 h, fixed with formaldehyde (2% final) and permeabilised with methanol. Following blocking with TBST-3% BSA, fixed cells are incubated with primary antibody (anti-phospho ERK from rabbit) over-night at 4° C. Cells are incubated with Propidium Iodide (DNA fluorescent dye) and detection of cellular p-ERK is performed using an anti-rabbit secondary antibody conjugated to the fluorescent Alexa Fluor 488 dye (Molecular probes). The fluorescence is analysed using the Acumen Explorer (TTP Labtech), a laser-scanning microplate cytometer, and the Alexa Fluor 488 signal is normalised to the PI signal (proportional to cell number).
The EC50 is defined as the concentration at which a given compound achieves a signal half way between the baseline and the maximum response. EC50 values are calculated using the XLfit software package (version 2.0.5).

[2] = tested on: HCT116 and A375 cell lines; assay: Cell proliferation assay (CellTiter-Glo); assay type: cell-based; settings: Homo sapiens; in either cell line (HCT116 or A375); 72 h exposure
Protocol: Compounds are tested in a cell proliferation assay using the following cell lines:
as §1
Cells are seeded in 96-well plates at 2,000 cells/well and after 24 hours they are exposed to different concentrations of compounds in 0.83% DMSO. Cells are grown for a further 72 h, and an equal volume of CellTiter-Glo reagent (Promega) is added to each well. This lyses the cells and generates a luminescent signal proportional to the amount of ATP released (and therefore proportional to the number of cells in the well) that can be detected using a multi-well luminometer.
The EC50 is defined as the concentration at which a given compound achieves 50% inhibition of control. IC50 values are calculated using the XLfit software package (version 2.0.5).

Compound | pEC50 [1] | pEC50 [2]
CN(C)C(=O)c1ccc(Cn2c(C(=O)NOCCO)c(Nc3ccc(I)cc3F)c3cnccc32)cc1 [Example 30] | > 5.00 | –
O=C(NOCCO)c1c(Nc2ccc(I)cc2F)c2cnccc2n1CC1CC1 [Example 23] | > 5.00 | > 5.00
COc1ccc(Cn2c(C(=O)NOCCO)c(Nc3ccc(I)cc3F)c3cnccc32)cc1 [Example 8] | > 5.00 | > 5.00
O=C(NOCCO)c1[nH]c2c(F)cncc2c1Nc1ccc(I)cc1F [Example 49] | > 5.00 | > 5.00
Cn1c(C(N)=O)c(Nc2ccc(I)cc2F)c2cnccc21 [Example 16] | > 5.00 | > 5.00
O=C(NOCCO)c1c(Nc2ccc(I)cc2F)c2cnccc2n1CCCO [Example 41] | > 5.00 | > 5.00
CN(C)S(=O)(=O)c1ccc(Cn2c(C(=O)NOCCO)c(Nc3ccc(I)cc3F)c3cnccc32)cc1 [Example 50] | > 5.00 | –
COc1ccc(Cn2c(C(N)=O)c(Nc3ccc(I)cc3F)c3cnccc32)cc1 [Example 17] | > 5.00 | –
N#Cc1ccc(Cn2c(C(=O)NOCCO)c(Nc3ccc(I)cc3F)c3cnccc32)s1 [Example 46] | > 5.00 | > 5.00
Cn1c(C(=O)NOCCO)c(Nc2ccc(I)cc2F)c2cnccc21 [Example 6, 3-(2-Fluoro-4-iodo-phenylamino)-1-methyl-1H-pyrrolo[3,2-c]pyridine-2-carboxylic acid (2-hydroxy-ethoxy)-amide] | > 5.00 | > 5.00
O=C(NOCCO)c1c(Nc2ccc(I)cc2F)c2cnccc2n1Cc1ccc(C(F)(F)F)cc1 [Example 43] | > 5.00 | > 5.00
O=C(NOCCO)c1c(Nc2ccc(I)cc2F)c2cnccc2n1Cc1ccc(F)cc1 [Example 33] | > 5.00 | > 5.00
CN(C)C(=O)c1cccc(Cn2c(C(=O)NOCCO)c(Nc3ccc(I)cc3F)c3cnccc32)c1 [Example 45] | > 5.00 | > 5.00
O=C(NOCCO)c1[nH]c2ccncc2c1Nc1ccc(I)cc1F [Example 10] | > 5.00 | > 5.00
O=C(NOCCO)c1c(Nc2ccc(I)cc2F)c2cnccc2n1Cc1cccnc1 [Example 26] | > 5.00 | > 5.00
CSc1ccc(Nc2c(C(=O)NOC(C)(C)CO)[nH]c3ccncc23)c(F)c1 [Example 59, 3-(2-Fluoro-4-methylsulfanyl-phenylamino)-1H-pyrrolo[3,2-c]pyridine-2-carboxylic acid (2-hydroxy-1,1-dimethyl-ethoxy)-amide semiformate] | > 5.00 | > 5.00
CSc1ccc(Nc2c(C(=O)NOC[C@H](C)O)n(C)c3ccncc23)c(F)c1 [Example 58] | > 5.00 | > 5.00
CN(C)S(=O)(=O)c1cccc(Cn2c(C(=O)NOCCO)c(Nc3ccc(I)cc3F)c3cnccc32)c1 [Example 47] | > 5.00 | > 5.00
Cn1c(C(=O)NOCC2CC2)c(Nc2ccc(I)cc2F)c2cnccc21 [Example 15] | > 5.00 | > 5.00
N#Cc1cccc(Cn2c(C(=O)NOCCO)c(Nc3ccc(I)cc3F)c3cnccc32)c1 [Example 48] | > 5.00 | > 5.00
CCn1c(C(=O)NOCCO)c(Nc2ccc(I)cc2F)c2cnccc21 [Example 11] | > 5.00 | > 5.00
CN(C)C(=O)c1ccc(Cn2c(C(=O)NOCCO)c(Nc3ccc(I)cc3F)c3cnccc32)cc1 [Example 42] | – | > 5.00
COCCn1c(C(=O)NOCCO)c(Nc2ccc(I)cc2F)c2cnccc21 [Example 7] | > 5.00 | > 5.00

Compound | pEC50 [1] | pEC50 [2]
C#CCn1c(C(=O)NOCCO)c(Nc2ccc(I)cc2F)c2cnccc21 [Example 64, 3-(2-Fluoro-4-iodo-phenylamino)-1-prop-2-ynyl-1H-pyrrolo[3,2-c]pyridine-2-carboxylic acid (2-hydroxy-ethoxy)-amide] | > 5.00 | > 5.00
O=C(NOCCO)c1[nH]c2c(Cl)cncc2c1Nc1ccc(I)cc1F [Example 34] | > 5.00 | –
O=C(NOCCO)c1c(Nc2ccc(I)cc2F)c2cnccc2n1C1CC1 [Example 61, 1-Cyclopropyl-3-(2-fluoro-4-iodo-phenylamino)-1H-pyrrolo[3,2-c]pyridine-2-carboxylic acid (2-hydroxy-ethoxy)-amide] | > 5.00 | > 5.00
O=C(NOCCO)c1c(Nc2ccc(I)cc2F)c2cnccc2n1Cc1ccccc1F [Example 27] | > 5.00 | > 5.00
CSc1ccc(Nc2c(C(=O)NOCCO)n(C)c3ccncc23)c(F)c1 [Example 56] | > 5.00 | > 5.00
O=C(NOCC1CC1)c1[nH]c2ccncc2c1Nc1ccc(I)cc1F [Example 38] | > 5.00 | > 5.00
N#Cc1ccc(Cn2c(C(=O)NOCCO)c(Nc3ccc(I)cc3F)c3cnccc32)cc1 [Example 44] | > 5.00 | > 5.00
CSc1ccc(Nc2c(C(=O)NOCCO)n(C3CC3)c3ccncc23)c(F)c1 [Example 62, 1-Cyclopropyl-3-(2-fluoro-4-methylsulfanyl-phenylamino)-1H-pyrrolo[3,2-c]pyridine-2-carboxylic acid (2-hydroxy-ethoxy)-amide] | > 5.00 | –
Cn1c(C(=O)NOCCO)c(Nc2ccc(I)cc2F)c2cncc(F)c21 [Example 37] | > 5.00 | > 5.00
Cn1c(C(=O)NOCCO)c(Nc2ccc(I)cc2F)c2cncc(Cl)c21 [Example 39] | > 5.00 | > 5.00
CC(C)(C)ONC(=O)c1[nH]c2ccncc2c1Nc1ccc(I)cc1F [Example 40] | > 5.00 | > 5.00
O=C(NOCC(O)CO)c1c(Nc2ccc(I)cc2F)c2cnccc2n1C1CC1 (stereo not shown) [Example 63, 1-Cyclopropyl-3-(2-fluoro-4-iodo-phenylamino)-1H-pyrrolo[3,2-c]pyridine-2-carboxylic acid (2,3-dihydroxy-propoxy)-amide] | > 5.00 | > 5.00
CS(=O)(=O)c1ccc(Cn2c(C(=O)NOCCO)c(Nc3ccc(I)cc3F)c3cnccc32)cc1 [Example 29] | > 5.00 | –
C[C@H](O)CONC(=O)c1c(Nc2ccc(I)cc2F)c2cncc(F)c2n1C [Example 54] | > 5.00 | > 5.00
O=C(NOCCO)c1c(Nc2ccc(I)cc2F)c2cnccc2n1Cc1ccncc1 [Example 25] | > 5.00 | > 5.00
Cn1c(C(=O)NOC[C@H](O)CO)c(Nc2ccc(I)cc2F)c2cnccc21 [Example 5, 3-(2-Fluoro-4-iodo-phenylamino)-1-methyl-1H-pyrrolo[3,2-c]pyridine-2-carboxylic acid ((R)-2,3-dihydroxy-propoxy)-amide] | > 5.00 | > 5.00
O=C(NOCCO)c1c(Nc2ccc(I)cc2F)c2cnccc2n1Cc1cccc(C(F)(F)F)c1 [Example 28] | > 5.00 | –
O=C(NOCCO)c1c(Nc2ccc(I)cc2F)c2cnccc2n1CCc1ccccc1 [Example 31] | > 5.00 | > 5.00
CSc1ccc(Nc2c(C(=O)NOC(C)(C)CO)n(C)c3ccncc23)c(F)c1 [Example 57] | > 5.00 | > 5.00
O=C(NOCCO)c1c(Nc2ccc(I)cc2F)c2cnccc2n1Cc1ccccc1 [Example 24] | > 5.00 | > 5.00
O=C(NOCCO)c1c(Nc2ccc(I)cc2F)c2cnccc2n1CC#CCO [Example 65, 3-(2-Fluoro-4-iodo-phenylamino)-1-(4-hydroxy-but-2-ynyl)-1-H-pyrrolo[3,2-c]pyridine-2-carboxylic acid (2-hydroxy-ethoxy)-amide] | > 5.00 | > 5.00
Cn1c(C(=O)NO)c(Nc2ccc(I)cc2F)c2cnccc21 [Example 13] | > 5.00 | > 5.00

From patent US7855216B2, “Aza-indolyl compounds and methods of use” (Genentech, Inc., priority 2006, dated 2010)
